Paper PMC12621191, “Increasing the Chemical Space of L-SIGN Specific Glycomimetics” (Journal of Medicinal Chemistry, 2025)

Experiments:
L-SIGN = target: T1, L-SIGN (Homo sapiens, UniProt Q9H2X3); experiment: SPR binding inhibition (competition) assay on immobilized SARS-CoV-2 Spike surface, L-SIGN; settings: for Selectivity = (IC50 [DC-SIGN]/IC50 [L-SIGN]): L-SIGN vs DC-SIGN, SPR inhibition on Spike surface; for IC50 / L-SIGN IC50: SPR, Spike functionalized chip, L-SIGN 20 μM coinjected with ligand, pH 8, duplicates
T1 construct: L-SIGN 3G-ECD (amino acids 78 to 399); made in house
T1 sequence (Q9H2X3 78-399): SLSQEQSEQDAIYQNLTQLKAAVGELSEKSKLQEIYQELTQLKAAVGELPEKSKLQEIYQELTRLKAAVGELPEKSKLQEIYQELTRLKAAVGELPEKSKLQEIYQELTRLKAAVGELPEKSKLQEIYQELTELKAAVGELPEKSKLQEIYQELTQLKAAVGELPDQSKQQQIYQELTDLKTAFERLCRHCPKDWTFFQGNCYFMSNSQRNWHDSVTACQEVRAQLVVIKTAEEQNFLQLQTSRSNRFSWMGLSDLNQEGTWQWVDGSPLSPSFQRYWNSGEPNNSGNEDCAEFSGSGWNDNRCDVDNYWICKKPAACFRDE

DC-SIGN = target: T2, DC-SIGN (Homo sapiens, UniProt Q9NNX6); experiment: SPR binding inhibition (competition) assay on immobilized SARS-CoV-2 Spike surface, DC-SIGN; settings: Spike functionalized chip, DC-SIGN 20 μM coinjected with ligand, pH 8, duplicates
T2 construct: DC-SIGN 3G-ECD (amino acids 66 to 404); made in house
T2 sequence (Q9NNX6 66-404): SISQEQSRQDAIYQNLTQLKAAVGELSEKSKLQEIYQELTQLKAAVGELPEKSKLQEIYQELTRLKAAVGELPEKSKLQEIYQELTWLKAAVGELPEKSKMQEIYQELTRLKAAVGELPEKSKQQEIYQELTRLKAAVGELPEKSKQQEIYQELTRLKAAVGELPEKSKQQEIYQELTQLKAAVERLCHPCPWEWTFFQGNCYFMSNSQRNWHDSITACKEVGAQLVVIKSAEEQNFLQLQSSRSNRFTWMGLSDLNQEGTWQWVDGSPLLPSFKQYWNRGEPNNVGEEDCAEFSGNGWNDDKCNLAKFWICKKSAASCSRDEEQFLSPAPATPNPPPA

Structure (SMILES)	Selectivity = (IC50 [DC-SIGN]/IC50 [L-SIGN]) (L-SIGN)	IC50 (L-SIGN)	IC50 (DC-SIGN)	L-SIGN IC50 (L-SIGN)	Selectivity = (IC50 [DC-SIGN]/IC50 [L-SIGN]) (L-SIGN; listed as 51 (Man79))
N=C(N)NCc1cn([C@@H]2[C@@H](OCCCl)O[C@H](CO)[C@@H](O)[C@@H]2O)nn1 [Man84, reference compound]	61	19 ± 0.02 µM	1160 ± 25 µM		
OC[C@H]1O[C@H](OCCCl)[C@@H](n2cc(CNc3ncccn3)nn2)[C@@H](O)[C@@H]1O [compound 2]		602 ± 0.5 µM	798 ± 16 µM	Low affinity	
COc1nc(NCc2cn([C@@H]3[C@@H](OCCCl)O[C@H](CO)[C@@H](O)[C@@H]3O)nn2)nc(OC)n1 [compound 3, 2-Chloroethyl 2-Deoxy-2-(4-(((4,6-dimethoxy-1,3,5-triazin-2-yl)amino)methyl)-1,2,3-triazol-1-yl)-α-D-mannopyranoside]		453 ± 0.4 µM	555 ± 14 µM	Low affinity	
OC[C@H]1O[C@H](OCCCl)[C@@H](n2cc(CNC3=NCCN3)nn2)[C@@H](O)[C@@H]1O [compound 4]	76	15 ± 0.01 µM	1130 ± 26 µM		
OC[C@H]1O[C@H](OCCCl)[C@@H](n2cc(CNC3=NCCCN3)nn2)[C@@H](O)[C@@H]1O [compound 5, 2-Chloroethyl 2-Deoxy-2-(4-(((1,4,5,6-tetrahydropyrimidin-2-yl)amino)methyl)-1,2,3-triazol-1-yl)-α-D-mannopyranoside]	94	12 ± 0.01 µM	1130 ± 55 µM		
O=c1ccnc(NCc2cn([C@@H]3[C@@H](OCCCl)O[C@H](CO)[C@@H](O)[C@@H]3O)nn2)[nH]1 [compound 6, 2-Chloroethyl 2-Deoxy-2-(4-(((pyrimidin-4(3H)-onyl)amino)methyl)-1,2,3-triazol-1-yl)-α-D-manno Pyranoside]	25	30 ± 0.2 µM	750 ± 29 µM		
O=c1nccc(NCc2cn([C@@H]3[C@@H](OCCCl)O[C@H](CO)[C@@H](O)[C@@H]3O)nn2)[nH]1 [compound 7, 2-Chloroethyl 2-Deoxy-2-(4-(((pyrimidin-2(1H)-onyl)amino)methyl)-1,2,3-triazol-1-yl)-α-D-manno Pyranoside]	5	130 ± 1 µM	692 ± 8 µM		
OC[C@H]1O[C@H](OCCCl)[C@@H](n2cc(CNc3ccccn3)nn2)[C@@H](O)[C@@H]1O [compound 8, 2-Chloroethyl 2-Deoxy-2-((4-((pyridin-2-ylamino)methyl))-1,2,3-triazol-1-yl)-α-D-mannopyranoside]	8	101 ± 0.2 µM	822 ± 16 µM		
OC[C@H]1O[C@H](OCCCl)[C@@H](n2cc(CNc3ncc[nH]3)nn2)[C@@H](O)[C@@H]1O [compound 9, 2-Chloroethyl 2-Deoxy-2-(4-(((1H-imidazol-2-yl)amino)methyl)-1,2,3-triazol-1-yl)-α-D-mannopyranoside]	50	18 ± 0.1 µM	895 ± 8 µM		
OC[C@H]1O[C@H](OCCCl)[C@@H](n2cc(CNc3nc4ccccc4[nH]3)nn2)[C@@H](O)[C@@H]1O [compound 10, 2-Chloroethyl 2-Deoxy-2-(4-(((1H-benzo[d]imidazol-2-yl)amino)methyl)-1,2,3-triazol-1-yl)-α-D-mannopyranoside]	16	48 ± 0.4 µM	779 ± 24 µM		
COc1ccc2[nH]c(NCc3cn([C@@H]4[C@@H](OCCCl)O[C@H](CO)[C@@H](O)[C@@H]4O)nn3)nc2c1 [compound 11, 2-Chloroethyl 2-Deoxy-2-(4-(((5-methoxy-1H-benzo[d]imidazol-2-yl)amino)methyl)-1,2,3-triazol-1-yl)-α-D-mannopyranoside]	12	51.6 ± 0.7 µM	602 ± 12 µM		
NCc1cn([C@@H]2[C@@H](OCCCl)O[C@H](CO)[C@@H](O)[C@@H]2O)nn1 [compound 51, reference compound]		~300 µM	~300 µM		totally unselective
